Assay results taken from patent publication US20180310564A1, “Mesoionic Compound” (Nippon Kayaku Kabushiki Kaisha, priority 2015, published 2018).
Where a name gives a salt, the structure may show the parent alone.

Experiments:
Format in all cases: in vivo
[1] = system: Southern Yellow thrips (Thrips palmi); assay: Test (foliar spraying) for controlling southern yellow thrips; details: 3 days after treatment; for mortality at 200 ppm: 72 h, foliar spraying on cucumber leaf, first instar larvae; for Mortality of Thrips palmi (%): foliar spraying
Description: A cucumber leaf cut to a diameter of 1.5 cm was placed on cotton wool moistened with water. […] After air-drying, 5 larvae of southern yellow thrips in the first instar larva were released there. The sample with cotton wool was placed in a plastic cup, which was covered with a lid and kept in a chamber at a constant temperature of 25° C. for rearing.

[2] = system: Brown Planthopper (Nilaparvata lugens); assay: Test (foliar dipping) for controlling brown planthopper; details: 120 h, rice seedlings dipped, 5 days after treatment; for mortality at 200 ppm: third instar larvae
Description: […] After air-drying, the rice seedlings held with urethane in a glass cylinder having an inner diameter of 4.5 cm and a length of 14 cm were set up in a plastic cup containing 40 mL of water. Larvae of brown planthoppers in the third instar larva were released there. The cylinder was covered with a lid of medicine paper and kept in a chamber at a constant temperature of 25° C. for rearing.

[3] = system: Cotton Aphid (Aphis gossypii); assay: Test (foliar spraying) for controlling cotton aphid; details: 120 h, 5 days after treatment; for mortality at 200 ppm: foliar spraying on cucumber leaf
Description: A cucumber leaf cut to a diameter of 3.5 cm was placed on cotton wool moistened with water. Two adult cotton aphids were released there for offspring for 24 hours and the adult insects were then removed. […] After air-drying, the sample with cotton wool was placed in a plastic cup, which was covered with a lid and kept in a chamber at a constant temperature of 25° C. for rearing.

[4] = system: Brown Planthopper (Nilaparvata lugens); assay: Test (root dipping) for controlling brown planthopper; details: 5 days after treatment
Description: (§1) Ten sampled rice seedlings held with urethane in a glass cylinder having an inner diameter of 4.5 cm and a length of 14 cm were set up in a plastic cup containing 40 mL of chemical solution diluted to a desired concentration. After 2 days, 10 larvae of brown planthoppers in the third instar larva were released in the glass cylinder. The glass cylinder was covered with a lid of medicine paper and kept in a chamber at a constant temperature of 25° C. for rearing.

[5] = system: Brown Planthopper (Nilaparvata lugens); assay: Residual effect test (field experiment) for brown planthopper
Description: The roots of five sampled rice seedlings were washed with water. Subsequently, 25 mg of the wettable powder prepared in accordance with Formulation Example 2 described above was wrapped in the roots. Each strain was made from the five seedlings. In outdoor artificial paddy fields made from wooden frames having a size of 60 cm by 90 cm, 10 strains were planted, respectively. The artificial paddy field was shielded by an insect screen with a mesh size of 1 mm, so that invasion of harmful insects from the outside was prevented. Into the test system, 40 to 100 adult brown planthoppers were released at fixed intervals so as to cause damage to the rice. On 16 to 51 days after the treatment, the numbers of surviving insects and dead insects were measured to calculate the density index. The density index was obtained from the following expression.

[6] = system: Inedorooimushi (Oulema oryzae); assay: Test (pot test) for controlling inedorooimushi; details: larvae released 20 days after treatment, 2 days after release
Description: The roots of five sampled rice seedlings were washed with water. The wettable powder prepared in accordance with Formulation Example 2 described above was wrapped in the roots to be planted in a Wagner pot of 1/10000 a. After 20 days from the treatment, 3 larvae of inedorooimushi in the late instar larva were released per strain and reared in a plastic greenhouse with a room temperature set at 25° C. On 2 days after the releasing of the insects, the mortality of the insect was calculated.

[7] = system: Rice Stem Borer (Chilo suppressalis); assay: Test (pot test) for controlling rice stem borer; details: 14 days after treatment
Description: The roots of five sampled rice seedlings were washed with water. The wettable powder prepared in accordance with Formulation Example 2 described above was wrapped in the roots to be planted in a Wagner pot of 1/10000 a. After 4 days from the treatment, a total of […] of rice stem borer were released per strain and reared in a plastic greenhouse with a room temperature set at 25° C. On 14 days after the treatment, the ratio of browning stem of seedlings for each strain and the ratio to untreated ones were calculated. Double system.

[8] = system: Brown Winged Green Stink Bug (Plautia stali); assay: Test (greenhouse test) for controlling brown winged green stink bug; details: 100 ppm sprayed on apple fruit
Description: Using a commercially available hand spray, a chemical solution diluted to a concentration of 100 ppm was sprayed onto an apple fruit (cultivar: Fuji). After air-drying, the apple fruit was placed in a plastic cup, which was allowed to stand still for a specified number of […] in a plastic greenhouse with a room temperature set at 25° C. and with the natural light shining thereon. On 7 days after the treatment, 5 adult brown winged green stink bugs (without distinction between male and female) were released onto the treated fruit. On 4 days after the release of insects, the numbers of death and abnormality were observed and recorded. Triple system. Also, the fruit after examination was immersed in an acidic 0.5% fuchsine solution for 30 minutes, and then washed with water to measure the total number of sapping scars.

[9] = system: Rice Leaf Beetle (Oulema oryzae); assay: Test (root dipping) for controlling rice leaf beetle; details: 1.6 ppm, root dipping of rice seedlings, late instar larvae released after 2 days, 4 days after treatment
Description: as §1, with “4” for “10”, “rice leaf beetle” for “brown planthoppers”, “late” for “third”

[10] = After 16 days, 25 mg wettable powder (Formulation Example 2) at roots per strain, outdoor artificial paddy field
[11] = After 23 days, 25 mg wettable powder at roots per strain, artificial paddy field
[12] = After 30 days, 25 mg wettable powder at roots per strain, artificial paddy field
[13] = After 37 days, 25 mg wettable powder at roots per strain, artificial paddy field
[14] = After 44 days, 25 mg wettable powder at roots per strain, artificial paddy field
[15] = After 51 days, 25 mg wettable powder at roots per strain, artificial paddy field
[16] = 5 adults released 7 days after treatment, triple system, 4 days after release

SMILES: N#CCC[n+]1c([O-])c(-c2ccccc2)c(=O)n2ccccc21 [Compound 1, 1-(2-cyanoethyl)-2-hydroxy-4-oxo-3-phenyl-4H-pyrido[1,2-a]pyrimidinium inner salt]
- mortality at 200 ppm [1]: ≥ 80%
- mortality at 0.012 ppm ([2]; 0.012 ppm): 50%
- mortality at 0.024 ppm ([2]; 0.024 ppm): 60%
- mortality at 0.049 ppm ([2]; 0.049 ppm): 70%
- mortality at 200 ppm [2]: ≥ 80%
- mortality at 200 ppm [3]: ≥ 80%

SMILES: CC(CC#N)[n+]1c([O-])c(-c2cccc(C(F)(F)F)c2)c(=O)n2ccccc21 (stereo not shown) [Comparative compound 7]
- mortality at 200 ppm [3]: 0%

SMILES: Cc1cccn2c(=O)c(-c3cc(Cl)cc(Cl)c3)c([O-])[n+](Cc3cnc(Cl)s3)c12 [Dicloromezotiaz]
- mortality at 200 ppm [1]: 0%
- mortality at 200 ppm [2]: 0%
- mortality at 12.5 ppm ([3]; foliar spraying): 0%
- mortality at 50 ppm ([3]; foliar spraying): 90%
- mortality at 200 ppm [3]: 100%
- mortality at 200 ppm ([4]; 200 ppm, root dipping of rice seedlings, larvae released after 2 days): 0%

SMILES: Cc1cccc(-c2c([O-])[n+](CCCCCC#N)c3ccccn3c2=O)c1 [Comparative compound 2]
- mortality at 50 ppm ([3]; foliar spraying): 0%
- mortality at 200 ppm [3]: 20%

SMILES: N#Cc1nn(-c2c(Cl)cc(C(F)(F)F)cc2Cl)c(N)c1[S+]([O-])C(F)(F)F (stereo not shown) [Fipronil, reference compound]
- Density index of Nilaparvata lugens [5, 10]: 0
- Density index of Nilaparvata lugens [5, 11]: 5.4
- Density index of Nilaparvata lugens [5, 12]: 56.2
- Density index of Nilaparvata lugens [5, 13]: 73.9
- Density index of Nilaparvata lugens [5, 14]: 105
- Density index of Nilaparvata lugens [5, 15]: 98.4

SMILES: CCOc1cccc(-c2c([O-])[n+](CCC#N)c3ccccn3c2=O)c1 [Compound 21, 1-(2-cyanoethyl)-3-(3-ethoxyphenyl)-2-hydroxy-4-oxo-4H-pyrido[1,2-a]pyrimidinium inner salt]
- mortality at 200 ppm [1]: ≥ 80%
- mortality at 0.01 ppm [2]: 10%
- mortality at 0.02 ppm [2]: 70%
- mortality at 0.05 ppm [2]: 80%
- mortality at 200 ppm [2]: ≥ 80%
- mortality at 200 ppm [3]: ≥ 80%

SMILES: COc1cccc(-c2c([O-])[n+](CCC#N)c3ccccn3c2=O)c1 [Compound 18, 1-(2-cyanoethyl)-2-hydroxy-3-(3-methoxyphenyl)-4-oxo-4H-pyrido[1,2-a]pyrimidinium inner salt]
- Mortality of Thrips palmi (%) ([1]; 3.1 ppm): 100%
- Mortality of Thrips palmi (%) ([1]; 12.5 ppm): 100%
- Mortality of Thrips palmi (%) ([1]; 50 ppm): 100%
- mortality at 200 ppm [1]: ≥ 80%
- mortality at 0.01 ppm [2]: 10%
- mortality at 0.02 ppm [2]: 20%
- mortality at 0.05 ppm [2]: 100%
- mortality at 200 ppm [2]: ≥ 80%
- mortality at 200 ppm [3]: ≥ 80%

SMILES: O=c1c(-c2cccc(C(F)(F)F)c2)c([O-])[n+](Cc2cncnc2)c2ccccn12 [Triflumezopyrim, reference compound]
- Mortality of Thrips palmi (%) ([1]; 12.5 ppm): 0%
- Mortality of Thrips palmi (%) ([1]; 50 ppm): 60%
- mortality at 200 ppm [1]: 100%
- mortality at 125 g/ha ([6]; 125 g/ha): 16.7%
- mortality at 250 g/ha ([6]; 250 g/ha): 50%
- mortality at 500 g/ha ([6]; 500 g/ha as wettable powder at rice roots): 66.7%
- mortality at 0.1 ppm ([2]; 0.1 ppm): 10%
- mortality at 0.2 ppm ([2]; 0.2 ppm): 70%
- Browning stem ratio (%) ([7]; 500 g/ha as wettable powder (Formulation Example 2) at rice roots, hatchlings released after 4 days): 40%
- Ratio to untreated (%) ([7]; browning stem ratio relative to untreated, 500 g/ha): 49%
- Density index of Nilaparvata lugens [5, 10]: 2.5
- Density index of Nilaparvata lugens [5, 11]: 5.4
- Density index of Nilaparvata lugens [5, 12]: 45.1
- Density index of Nilaparvata lugens [5, 13]: 56.7
- Density index of Nilaparvata lugens [5, 14]: 63.9
- Density index of Nilaparvata lugens [5, 15]: 92.2
- mortality at 0.2 ppm ([3]; 0.20 ppm, foliar spraying): 0%
- mortality at 0.39 ppm ([3]; 0.39 ppm, foliar spraying): 60%
- mortality at 0.78 ppm ([3]; 0.78 ppm, foliar spraying): 85%
- mortality at 0.05 ppm ([4]; 120 h, 0.05 ppm, root dipping): 0%
- mortality at 0.1 ppm ([4]; 120 h, 0.1 ppm, root dipping): 70%
- mortality at 0.2 ppm ([4]; 120 h, 0.2 ppm, root dipping): 70%
- mortality at 0.4 ppm ([4]; 120 h, 0.4 ppm, root dipping): 70%
- mortality at 0.8 ppm ([4]; 120 h, 0.8 ppm, root dipping): 100%
- Number of abnormal insects [8, 16]: 5
- Number of dead insects [8, 16]: 4
- Number of normal insects [8, 16]: 6
- Total number of sheaths formed by stylet insertion ([8]; fruit stained with fuchsine after examination): 10
- Proportion of abnormal insects and dead insects on 4 days after releasing insects (%) ([8]; insects released 7 days after treatment): 60.0%
- mortality at 1.6 ppm [9]: 0%

SMILES: Cc1cccc(-c2c([O-])[n+](CCCCC#N)c3ccccn3c2=O)c1 [Comparative compound 3]
- mortality at 12.5 ppm ([3]; foliar spraying): 0%
- mortality at 50 ppm ([3]; foliar spraying): 40%
- mortality at 200 ppm [3]: 100%

SMILES: CC(C#N)C[n+]1c([O-])c(-c2cccc(C(F)(F)F)c2)c(=O)n2ccccc21 (stereo not shown) [Comparative compound 6]
- mortality at 12.5 ppm ([3]; foliar spraying): 50%
- mortality at 50 ppm ([3]; foliar spraying): 100%

SMILES: Cc1cccc(-c2c([O-])[n+](CCCCCCCC#N)c3ccccn3c2=O)c1 [Comparative compound 1]
- mortality at 200 ppm [3]: 0%

SMILES: N#CC[n+]1c([O-])c(-c2cccc(C(F)(F)F)c2)c(=O)n2ccccc21 [Comparative compound 5]
- mortality at 3.1 ppm ([3]; foliar spraying): 0%
- mortality at 12.5 ppm ([3]; foliar spraying): 10%

SMILES: N#CCCC[n+]1c([O-])c(-c2cccc(C(F)(F)F)c2)c(=O)n2ccccc21 [Comparative compound 4]
- mortality at 3.1 ppm ([3]; foliar spraying): 0%
- mortality at 12.5 ppm ([3]; foliar spraying): 75%
